Laboratory results: patent US11053251B2, “GPR35 modulators” (Prometheus Biosciences, Inc., priority 2019, dated 2021)

target: Human GPR35 (Homo sapiens, UniProt Q9HC97, S294R); assay: Alternative Beta-Arrestin Assay (JumpIn 294R Tango U2OS cells, LiveBLAzer-FRET B/G); assay type: cell-based; conditions: Human GPR35 expressing JumpIn 294R Tango U2OS cells, 5 hours treatment
Procedure, shortened: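 U2OS Tango cells expressing human GPR35 S294R, plated overnight, exposed to serially diluted compounds for 5 hours. β-lactamase reporter read with LiveBLAzer-FRET B/G (CCF4-AM) after 2 h; EC50 from four-parameter fit, zaprinast as positive control.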

Chain of Human GPR35 (Q9HC97 whole entry S294R): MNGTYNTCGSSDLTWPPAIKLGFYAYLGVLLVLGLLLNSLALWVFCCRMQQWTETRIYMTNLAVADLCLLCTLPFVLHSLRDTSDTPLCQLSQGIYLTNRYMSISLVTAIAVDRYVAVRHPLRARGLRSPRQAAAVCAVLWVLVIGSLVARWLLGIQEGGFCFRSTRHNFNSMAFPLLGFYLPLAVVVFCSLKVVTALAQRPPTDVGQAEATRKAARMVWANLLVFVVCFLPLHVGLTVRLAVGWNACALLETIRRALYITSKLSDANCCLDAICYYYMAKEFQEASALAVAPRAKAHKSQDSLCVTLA

Q: Which EC50 does the source give for CCOC(=O)COc1cccc(-c2ccc(-c3nc4[nH]nnc4c(=O)[nH]3)c(OC3CCCC3)c2)c1 [Compound 270, ethyl 2-((3′-(cyclopentyloxy)-4′-(7-oxo-6,7-dihydro-3H-[1,2,3]triazolo[4,5-d]pyrimidin-5-yl)-[1,1′-biphenyl]-3-yl)oxy)acetate] here?
A: ≤ 10 µM

Q: How did the EC50 turn out when CCOc1cc(-c2cccc([C@@H]3C[C@H]3C(=O)O)c2)ccc1-c1nc2[nH]nnc2c(=O)[nH]1 (single isomer, unassigned) [Compound 278, trans-2-(3′-ethoxy-4′-(7-oxo-6,7-dihydro-3H-[1,2,3]triazolo[4,5-d]pyrimidin-5-yl)-[1,1′-biphenyl]-3-yl)cyclopropane-1-carboxylic acid] was run?
A: ≤ 10 µM

Q: CCOc1cc(-c2cccc(NC)c2)ccc1-c1nc2[nH]nnc2c(=O)[nH]1 [Compound 232, 5-(3-Ethoxy-3′-(methylamino)-[1,1′-biphenyl]-4-yl)-3,6-dihydro-7H-[1,2,3]triazolo[4,5-d]pyrimidin-7-one] was tested. Which EC50 did it give?
A: ≤ 10 µM

Q: With CCOc1cc(-c2ccc(OCCN(C)C)c(/C=C/C(=O)O)c2)ccc1-c1nc2[nH]nnc2c(=O)[nH]1 [Compound 319, (E)-3-(4-(2-(dimethylamino)ethoxy)-3′-ethoxy-4′-(7-oxo-6,7-dihydro-3H-[1,2,3]triazolo[4,5-d]pyrimidin-5-yl)-[1,1′-biphenyl]-3-yl)acrylic acid] as the compound, how does the EC50 read?
A: ≤ 10 µM

Q: How did the EC50 turn out when CCOc1cc(-c2ccc(OC)c(CC(C)C(=O)O)c2)ccc1-c1nc2[nH]nnc2c(=O)[nH]1 (stereo not shown) [Compound 316, 3-(3′-ethoxy-4-methoxy-4′-(7-oxo-6,7-dihydro-3H-[1,2,3]triazolo[4,5-d]pyrimidin-5-yl)-[1,1′-biphenyl]-3-yl)-2-methylpropanoic acid] was run?
A: ≤ 10 µM

Q: For O=C(O)CNc1cccc(-c2ccc(-c3nc4[nH]nnc4c(=O)[nH]3)c(OCCN3CCCC3)c2)c1 [Compound 230, (4′-(7-Oxo-6,7-dihydro-3H-[1,2,3]triazolo[4,5-d]pyrimidin-5-yl)-3′-(2-(pyrrolidin-1-yl)ethoxy)-[1,1′-biphenyl]-3-yl)glycine], which EC50 is on record?
A: 10 to 50 µM

Q: Which EC50 does the source give for CCOc1cc(-c2ccc(OCCN3CCCC3)c(CC(C)C(=O)O)c2)ccc1-c1nc2[nH]nnc2c(=O)[nH]1 (stereo not shown) [Compound 300, 3-(3′-ethoxy-4′-(7-oxo-6,7-dihydro-3H-[1,2,3]triazolo[4,5-d]pyrimidin-5-yl)-4-(2-(pyrrolidin-1-yl)ethoxy)-[1,1′-biphenyl]-3-yl)-2-methylpropanoic acid] here?
A: ≤ 10 µM

Q: How did the EC50 turn out when CCOc1cc(-c2ccc(F)c(O[C@@H](C)C(=O)O)c2)ccc1-c1nc2[nH]nnc2c(=O)[nH]1 [Compound 265, (S)-2-((3′-ethoxy-4-fluoro-4′-(7-oxo-6,7-dihydro-3H-[1,2,3]triazolo[4,5-d]pyrimidin-5-yl)-[1,1′-biphenyl]-3-yl)oxy)propanoic acid] was run?
A: ≤ 10 µM

Q: Which EC50 does the source give for CCOc1cc(-c2nc3[nH]nnc3c(=O)[nH]2)ccc1-c1cccc(OCC(=O)O)c1 [Compound 217, 2-((2′-Ethoxy-4′-(7-oxo-6,7-dihydro-3H-[1,2,3]triazolo[4,5-d]pyrimidin-5-yl)-[1,1′-biphenyl]-3-yl)oxy)acetic acid] here?
A: ≤ 10 µM

Q: How did the EC50 turn out when CCOc1cc(-c2cccc(CC(CC)C(=O)O)c2)ccc1-c1nc2[nH]nnc2c(=O)[nH]1 (stereo not shown) [Compound 239, 2-((3′-ethoxy-4′-(7-oxo-6,7-dihydro-3H-[1,2,3]triazolo[4,5-d]pyrimidin-5-yl)-[1,1′-biphenyl]-3-yl)methyl)butanoic acid] was run?
A: ≤ 10 µM

Q: Which EC50 does the source give for O=c1[nH]c(-c2ccc(-c3ccc(-c4nnn[nH]4)cc3)cc2OC2CCCC2)nc2[nH]nnc12 [Compound 273, 5-(3-(cyclopentyloxy)-4′-(1H-tetrazol-5-yl)-[1,1′-biphenyl]-4-yl)-3,6-dihydro-7H-[1,2,3]triazolo[4,5-d]pyrimidin-7-one] here?
A: ≤ 10 µM

Q: How did the EC50 turn out when CCOc1cc(-c2cccc(C[C@@H](N)C(=O)O)c2)ccc1-c1nc2[nH]nnc2c(=O)[nH]1 [Compound 275, (R)-2-amino-3-(3′-ethoxy-4′-(7-oxo-6,7-dihydro-3H-[1,2,3]triazolo[4,5-d]pyrimidin-5-yl)-[1,1′-biphenyl]-3-yl)propanoic acid] was run?
A: ≤ 10 µM

Q: How did the EC50 turn out when CCOc1cc(-c2cccc(C[C@@H](O)C(=O)O)c2)ccc1-c1nc2[nH]nnc2c(=O)[nH]1 [Compound 284, (R)-3-(3′-ethoxy-4′-(7-oxo-6,7-dihydro-3H-[1,2,3]triazolo[4,5-d]pyrimidin-5-yl)-[1,1′-biphenyl]-3-yl)-2-hydroxypropanoic acid] was run?
A: ≤ 10 µM

Q: Which EC50 does the source give for CCOc1cc(-c2cc(F)c(F)c(O[C@@H](C)C(=O)O)c2)ccc1-c1nc2[nH]nnc2c(=O)[nH]1 (single isomer, unassigned) [Compound 261] here?
A: ≤ 10 µM

Q: For CCOc1cc(-c2ccc(C(=O)O)c(OCC(=O)O)c2)ccc1-c1nc2[nH]nnc2c(=O)[nH]1 [Compound 220, 3-(Carboxymethoxy)-3′-ethoxy-4′-(7-oxo-6,7-dihydro-3H-[1,2,3]triazolo[4,5-d]pyrimidin-5-yl)-[1,1′-biphenyl]-4-carboxylic acid], which EC50 is on record?
A: ≤ 10 µM

Q: With CCOc1cc(-c2cccc(C[C@@H](OC)C(=O)O)c2)ccc1-c1nc2[nH]nnc2c(=O)[nH]1 [Compound 285, (R)-3-(3′-ethoxy-4′-(7-oxo-6,7-dihydro-3H-[1,2,3]triazolo[4,5-d]pyrimidin-5-yl)-[1,1′-biphenyl]-3-yl)-2-methoxypropanoic acid] as the compound, how does the EC50 read?
A: ≤ 10 µM

Q: For CCOc1cc(-c2ccc(C)c(OC(CC)C(=O)O)c2)ccc1-c1nc2[nH]nnc2c(=O)[nH]1 (stereo not shown) [Compound 272, 2-((3′-ethoxy-4-methyl-4′-(7-oxo-6,7-dihydro-3H-[1,2,3]triazolo[4,5-d]pyrimidin-5-yl)-[1,1′-biphenyl]-3-yl)oxy)butanoic acid], which EC50 is on record?
A: ≤ 10 µM

Q: CCOc1cc(-c2cc(C)cc(C(=O)O)c2)ccc1-c1nc2[nH]nnc2c(=O)[nH]1 [Compound 185, 3′-ethoxy-5-methyl-4′-(7-oxo-6,7-dihydro-3H-[1,2,3]triazolo[4,5-d]pyrimidin-5-yl)-[1,1′-biphenyl]-3-carboxylic acid] was tested. Which EC50 did it give?
A: ≤ 10 µM

Q: For CCOc1cc(-c2cccc(NCCC(=O)O)c2)ccc1-c1nc2[nH]nnc2c(=O)[nH]1 [Compound 226, 3-((3′-Ethoxy-4′-(7-oxo-6,7-dihydro-3H-[1,2,3]triazolo[4,5-d]pyrimidin-5-yl)-[1,1′-biphenyl]-3-yl)amino)propanoic acid], which EC50 is on record?
A: ≤ 10 µM

Q: Which EC50 does the source give for CCOc1cc(-c2ccc(C(=O)O)c(C)c2)ccc1-c1nc2[nH]nnc2c(=O)[nH]1 [Compound 207, 3′-Ethoxy-3-methyl-4′-(7-oxo-6,7-dihydro-3H-[1,2,3]triazolo[4,5-d]pyrimidin-5-yl)-[1,1′-biphenyl]-4-carboxylic acid] here?
A: ≤ 10 µM

Q: For CCOc1cc(-c2cccc(CC(CC)C(=O)O)c2)ccc1-c1nc2[nH]nnc2c(=O)[nH]1 (single isomer, unassigned) [Compound 241, 2-((3′-ethoxy-4′-(7-oxo-6,7-dihydro-3H-[1,2,3]triazolo[4,5-d]pyrimidin-5-yl)-[1,1′-biphenyl]-3-yl)methyl)butanoic acid], which EC50 is on record?
A: ≤ 10 µM

Q: For CCOc1cc(-c2cccc(CC(C)C(=O)O)c2)ccc1-c1nc2[nH]nnc2c(=O)[nH]1 (single isomer, unassigned) [Compound 312, 3-(3′-ethoxy-4′-(7-oxo-6,7-dihydro-3H-[1,2,3]triazolo[4,5-d]pyrimidin-5-yl)-[1,1′-biphenyl]-3-yl)-2-methylpropanoic acid], which EC50 is on record?
A: ≤ 10 µM

Q: With CCOc1cc(-c2cc(O)cc(O[C@H](CC)C(=O)O)c2)ccc1-c1nc2[nH]nnc2c(=O)[nH]1 (single isomer, unassigned) [Compound 258] as the compound, how does the EC50 read?
A: ≤ 10 µM

Q: Which EC50 does the source give for CCOc1cc(-c2cccc(CC3(C(=O)O)CC3)c2)ccc1-c1nc2[nH]nnc2c(=O)[nH]1 [Compound 244, 1-((3′-ethoxy-4′-(7-oxo-6,7-dihydro-3H-[1,2,3]triazolo[4,5-d]pyrimidin-5-yl)-[1,1′-biphenyl]-3-yl)methyl)cyclopropane-1-carboxylic acid] here?
A: ≤ 10 µM

Q: CCOc1cc(-c2ccc(OC)c(/C=C(\C)C(=O)O)c2)ccc1-c1nc2[nH]nnc2c(=O)[nH]1 [Compound 315, (E)-3-(3′-ethoxy-4-methoxy-4′-(7-oxo-6,7-dihydro-3H-[1,2,3]triazolo[4,5-d]pyrimidin-5-yl)-[1,1′-biphenyl]-3-yl)-2-methylacrylic acid] was tested. Which EC50 did it give?
A: ≤ 10 µM

Q: For CCOc1cc(-c2ccc(OCCN3CCCC3)c(/C=C/C(=O)O)c2)ccc1-c1nc2[nH]nnc2c(=O)[nH]1 [Compound 317, (E)-3-(3′-ethoxy-4′-(7-oxo-6,7-dihydro-3H-[1,2,3]triazolo[4,5-d]pyrimidin-5-yl)-4-(2-(pyrrolidin-1-yl)ethoxy)-[1,1′-biphenyl]-3-yl)acrylic acid], which EC50 is on record?
A: ≤ 10 µM

Q: Which EC50 does the source give for CCOc1cc(-c2ccc3c(c2)CC(C)(C)C(=O)O3)ccc1-c1nc2[nH]nnc2c(=O)[nH]1 [Compound 305, 5-(4-(3,3-dimethyl-2-oxochroman-6-yl)-2-ethoxyphenyl)-3,6-dihydro-7H-[1,2,3]triazolo[4,5-d]pyrimidin-7-one] here?
A: ≤ 10 µM

Q: How did the EC50 turn out when CCOC(=O)C(C)c1cccc(-c2ccc(-c3nc4[nH]nnc4c(=O)[nH]3)c(OCC)c2)c1 (stereo not shown) [Compound 296, ethyl 2-(3′-ethoxy-4′-(7-oxo-6,7-dihydro-3H-[1,2,3]triazolo[4,5-d]pyrimidin-5-yl)-[1,1′-biphenyl]-3-yl)propanoate] was run?
A: ≤ 10 µM

Q: For CCOc1cc(-c2cccc(O[C@@H](C)C(=O)O)c2)ccc1-c1nc2[nH]nnc2c(=O)[nH]1 (single isomer, unassigned) [Compound 252], which EC50 is on record?
A: ≤ 10 µM

Q: CCOc1cc(-c2ccc(OCC(=O)O)cc2)ccc1-c1nc2[nH]nnc2c(=O)[nH]1 [Compound 211, 2-((3′-Ethoxy-4′-(7-oxo-6,7-dihydro-3H-[1,2,3]triazolo[4,5-d]pyrimidin-5-yl)-[1,1′-biphenyl]-4-yl)oxy)acetic acid] was tested. Which EC50 did it give?
A: ≤ 10 µM

same assay, conditions: at 50 μM; Table 2

Q: How did the “% inhibition at 50 μM” value turn out when O=C(O)c1ccc(-c2ccc(-c3nc4[nH]nnc4c(=O)[nH]3)c(OCCN3CCCC3)c2)cc1 [Compound 227, 4′-(7-Oxo-6,7-dihydro-3H-[1,2,3]triazolo[4,5-d]pyrimidin-5-yl)-3′-(2-(pyrrolidin-1-yl)ethoxy)-[1,1′-biphenyl]-4-carboxylic acid] was run?
A: 66% inhibition at
